Measured values reported in publication PMC6754136 (PLoS ONE, 2019).
Entries after “also recorded” stand apart in the source; their conditions may differ.

Experiments:
recombinant human PDE5 = recombinant human PDE5 (Homo sapiens, UniProt O76074); experiment: in vitro PDE5 kinetics assay (nonlinear regression, AICc model comparison); format: biochemical
Method: guidelines were considered in the description of the following enzyme activity assays. […] For kinetics assays, 0.015, 0.05, and 0.2 μM of compounds 3 and 7 were used. […] Maximum DMSO concentration was 0.1% of the final reaction volume for all samples. […] The final reaction volume was 100 μL. Reactions were stopped with the addition of 100 μL of 0.1 M HCl and neutralized by adding 0.1 M NaOH until the pH was 7. […] Reaction mixture components were separated with a ramp gradient of solvent A and B run at a flow rate of 0.5 mL/min as follows: 0-4 minutes 0% B, 4-7 minutes 0-95% B, 7-8 minutes 95% B, 8-11.1 minutes 0% B. GMP was measured using selected reaction monitoring in positive mode for a centroid center mass of 152. […] Top value was constrained to 100, all other parameters were unconstrained. To obtain the dose-response curves for visual confirmation of the best-fit line, we executed a nonlinear regression fitting using the log(inhibitor) vs. response-variable slope (four parameters) equation in Prism. […] AICc analysis (built into Prism) was used to confirm the best-fitting inhibition model. […] Inhibition models were also compared via visual inspection of the fit of the calculated curves on the Michaelis-Menten plots.

[1] = mitochondrial viability assay with resazurin; format: cell-based, human; details: human, four cell lines, 0.01–10 μM, even at the highest concentration tested (10 μM)
Method: The human cell lines SH-SY5Y (SY5Y, ATCC CRL-2266), SK-MEL-5 (SKMEL-5, ATCC HTB-70), and NCI-H187 (H187, ATCC CRL-5804) were cultured in RPMI medium supplemented with 10% FBS and no antibiotics. These three cell lines were generously provided by the laboratory of Susan Lindquist via Luke Whitesell (currently at the University of Toronto, Toronto, ON, Canada). BJ-hTERT (described in [27], generously provided by Robert Weinberg, Whitehead Institute, Cambridge MA, USA) was cultured in 4:1 DMEM:M199 medium supplemented with 15% FBS and no antibiotics. All cell lines were grown and assayed at 37 °C, 5% CO2. All cell lines were screened for mycoplasma contamination by PCR (Mycoscope Detection Kit, Fisher Scientific) before use in assays.
For viability assays, cells were plated in black, clear bottom 384-well tissue culture-treated plates (Corning) and incubated overnight in the media described above but supplemented with 50 U/mL penicillin-streptomycin antibiotic (Life Technologies). Then, DMSO (no drug controls) and PDE5 inhibitors (0.01–10 μM; synthesized as described above or purchased from Selleck Chemicals) were added using a Hewlett-Packard D300 Digital Dispenser (Tecan) and incubated for 3 days. Maximum DMSO concentration was normalized to 0.1% of the total well volume for all wells. Resazurin (R & D Systems) was diluted 1:20 into each well and incubated for up to 4 hours. Fluorescence was read in a Tecan plate reader (excitation = 570 nm, emission = 585 nm). Wells treated with PDE5 inhibitors were normalized against control wells treated with DMSO to measure percent mitochondrial viability (100 = no effect on mitochondrial viability).

Ki (recombinant human PDE5): 36 ± 7 nM
Preferred model (recombinant human PDE5; AICc comparison of competitive vs noncompetitive inhibition): Competitive inhibition
Preferred model (recombinant human PDE5; AICc comparison of competitive vs uncompetitive inhibition): Competitive inhibition
probability that the competitive inhibition model is correct (recombinant human PDE5; AICc, compared to a noncompetitive or uncompetitive model): > 99%
Probability it is correct (competitive inhibition) (recombinant human PDE5; AICc, competitive vs noncompetitive inhibition): >99.99%
Probability it is correct (competitive inhibition) (recombinant human PDE5; AICc, competitive vs uncompetitive inhibition): >99.99%
Structure (SMILES): COc1ccc(-c2oc3c(CC=C(C)C)c(O)cc(O)c3c(=O)c2OCCCO)cc1 [Compound 7, 3-O-(3-Hydroxypropyl)-Icaritin]
mode of inhibition (recombinant human PDE5; Lineweaver-Burk plot and AICc analysis): competitive inhibition as the best fitting model; also recorded: partially competitive model
viability at 3 days, 10 μM [1]: > 70%
